# From patent US20050277663A1, “3-Aryl-3-hydroxy-and 3-aryl-3-oxopropionic acid esters as fungicides” (priority 2004, published 2005)
# What was measured:
# [1] = test system: Erysiphe graminis on barley plants; assay: Erysiphe greenhouse study on barley plants; conditions: for Average Lesion Number: 5 days after infection
# [2] = test system: Phytophthora infestans; assay: microbe, parasite or virus in culture; format: cell-based; conditions: for IC50: Phytophthora infestans, read-out: IC50 P. infestans
# [3] = test system: Septoria tritici; assay: Microtiter plate fungicidal screening (agar, spore inoculation); format: cell-based; conditions: fungal growth after 3-5 days at 20° C., C.V. class in parentheses
# [4] = test system: Botrytis cinerea; assay: as above; format: cell-based; conditions: fungal growth after 3-5 days at 20° C., C.V. class in parentheses, read-out: IC50 B. cinerea
# [5] = test system: Stagnospora nodorum; assay: as above; format: cell-based; conditions: fungal growth after 3-5 days at 20° C., C.V. class in parentheses; for IC50: Parastagonospora nodorum, read-out: IC50 S. nodorum
# [6] = test system: U. maydis; assay: as above; format: cell-based, Ustilago maydis; conditions: Mycosarcoma maydis; fungal growth after 3-5 days at 20° C.; C.V. class in parentheses
# [7] = test system: Alternaria solani on tomato plants; assay: Alternaria greenhouse study on tomato plants; conditions: for control of A. solani (in words): 75 ppm rate; for Average Lesion Size: 6 days after infection
# Protocol: Tomato plants were inoculated with a conidial suspension (8,000 conidia/ml) of A. solani and maintained in a dew chamber for 24 hours. The plants were subsequently moved to the greenhouse for disease development.
structure (smiles),measurement,setting,value
"CCCC1COC(Cn2cncn2)(c2ccc(Cl)cc2Cl)O1 (centres unmarked) [Propiconazole, propiconazole]",control of E. graminis,[1]; high (75 ppm) rate,~100%
same,Average Lesion Number,"[1]; inoculated data set, 4.7 ppm",A (A = 0-50)
same,Average Lesion Number,"[1]; inoculated data set, 18.8 ppm",A (A = 0-50)
same,Average Lesion Number,"[1]; inoculated data set, 75 ppm",A (A = 0-50)
same,control of E. graminis (in words),[1]; lower rates (19 and 5 ppm),excellent control
same,Average Lesion Number,"[1]; uninoculated data set, 5 ppm",A (A = 0-10)
same,Average Lesion Number,"[1]; uninoculated data set, 19 ppm",A (A = 0-10)
same,Average Lesion Number,"[1]; uninoculated data set, 75 ppm",A (A = 0-10)
"O=C(OCc1cccc(C(F)(F)F)c1)C(Cc1ccco1)C(O)c1cccnc1 (stereo not drawn) [Compound 20, 3-(Trifluoromethyl)phenylmethyl β-hydroxy-α-2-furylmethyl-3-pyridinepropanoate]",IC50,[2],> 25 µM
same,IC50,"[3]; Zymoseptoria tritici, read-out: IC50 S. tritici",< 5 µM
same,IC50,[4],> 25 µM
same,IC50 S. nodorum,[5],A (b)
same,IC50,[6],> 25 µM
"O=C(OCc1cccc(C(F)(F)F)c1)[C@H](c1ccccc1)[C@@H](O)c1cccnc1 [Compound 15, 3-(Trifluoromethyl)phenylmethyl syn-β-hydroxy-α-phenyl-3-pyridinepropanoate]",IC50,[2],> 25 µM
same,IC50 S. tritici,[3],A (d)
same,IC50 S. nodorum,[5],A (d)
same,IC50,[6],> 25 µM
"CC(C(=O)Oc1ccc(Cl)c(Cl)c1)C(O)c1cccnc1 (stereo not drawn) [Compound 29, 3,4-Dichlorophenyl β-hydroxy-α-methyl-3-pyridinepropanoate]",IC50 P. infestans,"[2]; fungal growth after 3-5 days at 20° C., C.V. class in parentheses",D (d)
same,IC50 S. tritici,[3],A (b)
same,IC50,[4],> 25 µM
same,IC50,[5],16 to 25 µM
same,IC50,[6],16 to 25 µM
"O=C(OCc1cccc(C(F)(F)F)c1)C(c1ccccc1Cl)C(O)c1cccnc1 (stereo not drawn) [Compound 21, 3-(Trifluoromethyl)phenylmethyl β-hydroxy-α-2-chlorophenyl-3-pyridinepropanoate]",IC50,[2],> 25 µM
same,IC50 S. tritici,[3],A (c)
same,IC50,[4],> 25 µM
same,IC50 S. nodorum,[5],A (c)
same,control of A. solani (in words),[7],no control
same,Average Lesion Size,[7]; 75 ppm,D (D = +30)
same,Average Lesion Size,[7]; 300 ppm,C (C = 21-30)
same,decrease in lesion counts,"[7]; high rate (300 ppm), activity was not significant",roughly 50%
same,activity against E. graminis (in words),"[1]; both rates (300 and 75 ppm), both uninoculated and inoculated tests",excellent activity
same,Average Lesion Number,"[1]; inoculated data set, 75 ppm",A (A = 0-50)
same,Average Lesion Number,"[1]; inoculated data set, 300 ppm",A (A = 0-50)
same,Average Lesion Number,"[1]; uninoculated data set, 75 ppm",A (A = 0-10)
same,Average Lesion Number,"[1]; uninoculated data set, 300 ppm",A (A = 0-10)
same,IC50,[6],> 25 µM
"O=C(OCc1ccc(Cl)c(Cl)c1)C(CSc1nc2cccnc2s1)C(O)c1cccnc1 (stereo not drawn) [Compound 16, 3,4-Dichlorophenylmethyl β-hydroxy-α-{2-(thiazolo[5,4-b]pyridine)thiomethyl}-3-pyridinepropanoate]",IC50,[2],> 25 µM
same,IC50 S. tritici,[3],A (c)
same,IC50 S. nodorum,[5],A (b)
same,IC50,[6],> 25 µM
"N#Cc1c(Cl)c(Cl)c(Cl)c(C#N)c1Cl [Chlorothalonil, chlorothalonil]",Average Lesion Size,[7]; 1250 ppm,A (A = 0-10)
same,Average Lesion Size,[7]; 5000 ppm,A (A = 0-10)
same,control of E. graminis (in words),[1]; high rate,marginal level of control
same,Average Lesion Number,"[1]; inoculated data set, 1250 ppm",B (B = 51-100)
same,Average Lesion Number,"[1]; inoculated data set, 5000 ppm",D (D = +150)
same,Average Lesion Number,"[1]; uninoculated data set, 1250 ppm",B (B = 11-20)
same,Average Lesion Number,"[1]; uninoculated data set, 5000 ppm",C (C = 21-30)
"CO/C=C(/C(=O)OC)c1ccccc1Oc1cc(Oc2ccccc2C#N)ncn1 [Azoxystrobin, azoxystrobin]",control of A. solani (in words),[7],slightly less control
same,Average Lesion Size,[7]; 75 ppm,A (A = 0-10)
same,control of A. solani,[7]; 300 ppm rate,~100%
same,Average Lesion Size,[7]; 300 ppm,A (A = 0-10)
"O=C(OCc1cccc(C(F)(F)F)c1)C(CSc1nccs1)C(O)c1cccnc1 (stereo not drawn) [Compound 5, 3-(Trifluoromethyl)phenylmethyl β-hydroxy-α-(2-thiazolylthiomethyl)-3-pyridinepropanoate]",IC50,[2],> 25 µM
same,IC50 S. tritici,[3],A (d)
same,IC50,[4],> 25 µM
same,IC50,[5],< 5 µM
same,IC50,[6],> 25 µM
